In article PMC8874475, “Antioxidant–Anti-Inflammatory Evaluation of a Polyherbal Formula” (Pharmaceuticals, 2022):

Tests used:
[1] = test system: egg white-induced rat paw edema; test: Egg white-induced rat paw edema, plethysmometry; format: in vivo, Wistar rats; conditions: for Average Paw Size ± SD / Average Rise in Paw Volume ± SD: n = 3; for % inhibition of paw volume: oral, 1 h before egg white, formula F 250 mg/mL at 1 mL/100 g bw, ASP 100 mg/kg
Description: Of the many methods used in screening for the anti-inflammatory effects of various drugs, the most commonly used is the method of highlighting the inhibitory effect of edema produced in the hind paw of a rat after the injection of an inflammatory product. We used whole, fresh egg white, which, due to its inflammation being maintained for a relatively short period of time, is optimal for observation. The effect was measured by the computerized plethysmometric method, the method unanimously and currently used in testing systemic anti-inflammatory effects.
The increases in the volume of the inflamed extremity at 30, 60, 120 and 180 min were expressed as a percentages compared with the volumes measured […] injection of the irritant (Table 3). The mean values of the measured volumes for each animal and the times of measurement were calculated, as were ± standard deviations, followed by the mean values per batch (Table 4). The differences between the averages of the values obtained in the treated groups and those of the control groups (with or without treatment), were calculated for each measurement moment and the anti-inflammatory indexes were evaluated.
The anti-inflammatory effect of plant extracts was evaluated by rat paw edema assay. Wistar rats, of both sexes, weighing 150–200 g provided by the Cantacuzino Institute Biobase were used for the study. Lots of equal numbers of animals (n = 3) were established for each test sample or reference product. The animals were checked at the reception and kept for a period of 7 days for acclimatization, with observation of the clinical condition, behavior and food consumption. They were weighed at the reception and after the acclimatization period, with the selection for testing of animals with weight variations less than 10% of the initial weight. The animals were housed in appropriate cages, in small groups of the same sex. The temperature of the experimental chamber was 22 ± 2 °C and the relative humidity was 50–60%. The lighting was artificial, alternately 12-h light and 12-h dark. The animals received standardized food and water ad libitum. Twelve hours before the test, they were kept at the post and allowed access to water. The measurement of the inflamed segments volumes and their subsequent evolution was performed with the help of a U40 Basile-Italy computerized plethysmometer 7140 and the CUB dedicated software program for data acquisition and storage. The test samples and the reference substance were administered orally by intragastric gavage 1 h before the injection of the inflammatory substance (whole, fresh egg white).
The animals were injected subcutaneously with a volume of 0.1 mL of the inflammatory agent on the plantar surface of the right hind limb.
The volume of the right hind limb was measured plethysometrically prior to injection with the inflammatory agent, which represented the “0” moment of the measurements. The volume of the extremity was measured repeatedly, at 30, 60, 120 and 180 min.
In order to perform the readings, the inflamed extremity was visually marked at the level of the lateral ankle, then it was introduced into the immersion liquid of the measuring cell of the device to this level, with the performance of three measurements for each animal and for each moment, established according to the working protocol, with data storage facilitated by the plethysmometer software. The samples were administered orally by intragastric gavage, as such, at a volume of 1 mL/100 g of bw. Powder samples, after suspension with Tween 80, were administered at a concentration of 250 mg/mL, at 1 mL/100 g of bw.
The reference product (acetylsalicylic acid/aspirin) (Zentiva, Bucharest, Romania) was administered in the same way, in the form of a suspension in two doses of 100 mg/kg of bw at a volume of 1 mL/100 g of bw.

paw edema = conditions: cited from earlier work
NO = conditions: cited from earlier work

CC(=O)Oc1ccccc1C(=O)O [ASP 100, acetylsalicylic acid]
Average Paw Size ± SD ([1]; 0 min (prior to injection)): 1.744 ± 0.297 mL | anti-inflammatory effect over the observation period ([1]; 30–180 min): anti-inflammatory effect that was induced early | Average Paw Size ± SD ([1]; 30 min): 2.489 ± 0.241 mL | Average Rise in Paw Volume ± SD ([1]; 30 min): 0.745 ± 0.056 mL | Average Paw Size ± SD ([1]; 60 min): 2.318 ± 0.161 mL | Average Rise in Paw Volume ± SD ([1]; 60 min): 0.574 ± 0.136 mL | % inhibition of paw volume ([1]; 60 min): 58.20% | Average Paw Size ± SD ([1]; 120 min): 2.216 ± 0.197 mL | Average Rise in Paw Volume ± SD ([1]; 120 min): 0.472 ± 0.1 mL | % inhibition of paw volume ([1]; 120 min): 64.25% | Average Paw Size ± SD ([1]; 180 min): 2.211 ± 0.263 mL | Average Rise in Paw Volume ± SD ([1]; 180 min): 0.467 ± 0.034 mL | inhibitory action on paw edema (paw edema; third hour, 200 mg/kg, p < 0.05): 31.87%

CC(C)c1cc2c(c(O)c1O)[C@@]13CCCC(C)(C)[C@@H]1C[C@@H]2OC3=O [carnosol]
IC50 (NO; read-out: IC50 NO inhibition): 9.4 µM

O=C(/C=C/c1ccc(O)c(O)c1)O[C@H](Cc1ccc(O)c(O)c1)C(=O)O [rosmarinic acid]
reduction of paw edema (paw edema; dose of 25 mg/kg, after 6 hrs): over 60%

CC(C)c1cc2c(c(O)c1O)[C@@]1(C(=O)O)CCCC(C)(C)[C@@H]1CC2 [Carnosic acid]
concentration that inhibits NO completely (NO): > 12.5 µg/mL
